Experiments:
recombinant human HDAC6 = biological target: T1, recombinant human HDAC6 (Homo sapiens, UniProt Q9UBN7); assay: Enzymatic screening on recombinant human HDAC6; format: biochemical; conditions: Table 2; read-out: HDAC6 IC50
T1 sequence (Q9UBN7 1-1215): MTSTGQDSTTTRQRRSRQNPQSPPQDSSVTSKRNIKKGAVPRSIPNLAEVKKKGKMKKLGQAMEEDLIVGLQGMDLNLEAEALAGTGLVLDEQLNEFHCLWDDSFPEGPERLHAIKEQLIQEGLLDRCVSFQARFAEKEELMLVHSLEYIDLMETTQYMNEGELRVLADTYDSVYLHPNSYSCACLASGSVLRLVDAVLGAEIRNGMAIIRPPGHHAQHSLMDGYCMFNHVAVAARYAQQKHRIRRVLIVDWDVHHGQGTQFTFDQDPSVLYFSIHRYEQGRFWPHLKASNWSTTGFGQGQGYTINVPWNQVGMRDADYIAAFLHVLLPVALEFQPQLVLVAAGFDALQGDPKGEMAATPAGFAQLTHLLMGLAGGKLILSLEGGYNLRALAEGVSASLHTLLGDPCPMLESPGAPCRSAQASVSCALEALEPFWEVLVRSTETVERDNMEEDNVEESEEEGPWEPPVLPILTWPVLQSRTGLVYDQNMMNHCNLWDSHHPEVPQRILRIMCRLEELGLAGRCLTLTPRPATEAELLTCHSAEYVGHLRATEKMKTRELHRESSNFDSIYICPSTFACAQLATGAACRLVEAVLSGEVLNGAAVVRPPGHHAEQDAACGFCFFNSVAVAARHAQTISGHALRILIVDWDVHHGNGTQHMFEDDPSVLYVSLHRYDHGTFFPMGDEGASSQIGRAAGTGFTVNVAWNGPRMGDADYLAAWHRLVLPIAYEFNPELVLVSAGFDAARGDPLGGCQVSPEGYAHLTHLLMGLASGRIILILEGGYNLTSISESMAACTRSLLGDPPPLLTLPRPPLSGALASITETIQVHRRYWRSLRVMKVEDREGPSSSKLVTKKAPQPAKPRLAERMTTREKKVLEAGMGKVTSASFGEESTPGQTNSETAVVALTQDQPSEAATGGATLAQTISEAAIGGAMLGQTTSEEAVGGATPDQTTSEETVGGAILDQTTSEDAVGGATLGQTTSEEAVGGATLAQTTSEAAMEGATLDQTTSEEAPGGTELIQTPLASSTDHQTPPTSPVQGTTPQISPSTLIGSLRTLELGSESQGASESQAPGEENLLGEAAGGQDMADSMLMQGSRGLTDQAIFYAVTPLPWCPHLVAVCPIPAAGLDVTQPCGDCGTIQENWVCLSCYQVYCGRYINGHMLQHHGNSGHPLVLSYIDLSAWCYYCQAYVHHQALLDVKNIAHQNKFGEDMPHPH
Summary of the method: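 Deacetylase activity of recombinant human isoforms is measured with FLUOR DE LYS, FLUOR DE LYS-Green or trifluoroacetyl-L-lysine substrates, supplied at 2× in 25 mM Tris-HCl, pH 8, 130 mM NaCl, 0.05% Tween-20, 10% glycerol. Both the enzyme-compound preincubation, of isoform-specific length, and the substrate reaction run at 30 °C.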

[1] = Stability to Phase I metabolism in rat S9 liver fraction; format: in vitro ADME; conditions: after 90 min, 37° C.
Procedure: Test compounds were incubated in rat and human liver S9 fraction at 37° C. up to 90 minutes in order to evaluate their stability to Phase I metabolism by hepatic enzymes. […] The reaction was stopped placing samples on ice bath and adding acidified acetonitrile. After centrifugation (10 minutes at 14000 rpm) an aliquot of the supernatant was diluted water, filtered with 0.45 μm regenerated cellulose syringe filters and injected in HPLC-UV or in LC-MS/MS. The percentages of the amount remaining at the various incubation times with respect to the initial amount were calculated. The intrinsic clearance was also calculated.

Stability in rat plasma = format: in vitro ADME; conditions: after 4 hours, 37° C.
Procedure: In order to evaluate the stability to circulating enzymes, test compounds were incubated in human and rat plasma at 37° C. in a thermostated oscillating bath. Each test compound was incubated at μM (50 μM when the samples were analysed by UV/HPLC, 1 or 2 μM when the samples were analysed by LC-MS/MS) concentration for 0, 15, 30 min and 1, 2 and 4 hours. The reaction was stopped placing tubes on ice bath and adding acidified acetonitrile. After centrifugation for 10 minutes at 14000 rpm, an aliquot of the supernatant was diluted with water, filtered with 0.45 μm syringe filters and injected in HPLC-UV or in LC-MS/MS. The percentages of amount remaining at the various times of incubation with respect to initial amount were calculated. The half-life in plasma was also calculated.

IC50 (recombinant human HDAC6) [nM] | residual percentage in rat S9 fraction [1] [%] | residual percentage in rat plasma (Stability in rat plasma) [%] | Structure (SMILES)
9 | 18 | 79 | COc1ccc(-c2nnn(Cc3ccc(C(=O)NO)cc3)n2)cc1OCc1ccccc1 [comp. 70, 4-[[5-(3-benzyloxy-4-methoxy-phenyl)tetrazol-2-yl]methyl]benzenecarbohydroxamic acid]
52 | 58 | 4 | COc1ccc(-c2nnnn2Cc2ccc(C(=O)NO)cc2)cc1OCc1ccccc1 [comp. 71, 4-[[5-(3-benzyloxy-4-methoxy-phenyl)tetrazol-1-yl]methyl]benzenecarbohydroxamic acid]
22 | 92 | 76 | Cn1c(Sc2ccc(C(=O)NO)cc2)nnc1C1COc2ccccc2O1 (stereo not drawn) [comp. 83, 4-[[5-(2,3-dihydro-1,4-benzodioxin-3-yl)-4-methyl-1,2,4-triazol-3-yl]sulfanyl]benzenecarbohydroxamic acid]
9 | 97 | 70 | O=C(NO)c1ccc(Cn2nnc(-c3ccccn3)n2)cc1 [comp. 89, 4-[[5-(2-pyridyl)tetrazol-2-yl]methyl]benzenecarbohydroxamic acid]
10 | 41 | 75 | O=C(NO)c1cc(F)c(Cn2nnc(-c3ccc4ccccc4n3)n2)c(F)c1 [comp. 95, 3,5-difluoro-4-[[5-(2-quinolyl)tetrazol-2-yl]methyl]benzenecarbohydroxamic acid]
7 | 41 | 99 | O=C(NO)c1cc(F)c(Cn2nnnc2-c2ccc3ccccc3n2)c(F)c1 [comp. 96, 3,5-difluoro-4-[[5-(2-quinolyl)tetrazol-1-yl]methyl]benzenecarbohydroxamic acid]
7 | 108 | 91 | Cn1c(Sc2c(F)cc(C(=O)NO)cc2F)nnc1-c1sc2ncccc2c1N [comp. 99, 4-[[5-(3-aminothieno[2,3-b]pyridin-2-yl)-4-methyl-1,2,4-triazol-3-yl]sulfanyl]-3,5-difluoro-benzenecarbohydroxamic acid]
18 | 9 | 73 | Cn1c(Sc2c(F)cc(C(=O)NO)cc2F)nnc1C1(c2ccccc2)CCC1 [comp. 101, 3,5-difluoro-4-[[4-methyl-5-(1-phenylcyclobutyl)-1,2,4-triazol-3-yl]sulfanyl]benzenecarbohydroxamic acid]
33 | 16 | 82 | Cn1c(Sc2c(F)cc(C(=O)NO)cc2F)nnc1C1(c2cccc(F)c2)CCCC1 [comp. 102, 3,5-difluoro-4-[[5-[1-(3-fluorophenyl)cyclopentyl]-4-methyl-1,2,4-triazol-3-yl]sulfanyl]benzenecarbohydroxamic acid]
56 | 5 | 79 | COc1ccc(C2(c3nnc(Sc4c(F)cc(C(=O)NO)cc4F)n3C)CCCCC2)cc1 [comp. 103, 3,5-difluoro-4-[[5-[1-(4-methoxyphenyl)cyclohexyl]-4-methyl-1,2,4-triazol-3-yl]sulfanyl]benzenecarbohydroxamic acid]
35 | 72 | 10 | O=C(NO)c1cc(F)c(Cn2nnnc2-c2cccc(S(F)(F)(F)(F)F)c2)c(F)c1 [comp. 109, 3,5-difluoro-4-[[5-[3-(pentafluoro-lambda6-sulfanyl)phenyl]tetrazol-1-yl]methyl]benzenecarbohydroxamic acid]
25 | 16 | 92 | O=C(NO)c1ccc(Cn2nnc(-c3ccc(S(F)(F)(F)(F)F)cc3)n2)cc1 [comp. 110, 4-[[5-[4-(pentafluoro-lambda6-sulfanyl)phenyl]tetrazol-2-yl]methyl]benzenecarbohydroxamic acid]
122 | 57 | 73 | O=C(NO)c1cc(F)c(Sc2nnc(CN3CCCCC3)n2-c2ccc(F)cc2)c(F)c1 [comp. 115, 3,5-difluoro-4-[[4-(4-fluorophenyl)-5-(1-piperidylmethyl)-1,2,4-triazol-3-yl]sulfanyl]benzenecarbohydroxamic acid]
25 | 65 | 78 | O=C(NO)c1cc(F)c(Sc2nnc(N3CCCC3)n2Cc2ccco2)c(F)c1 [comp. 116, 3,5-difluoro-4-[[4-(2-furylmethyl)-5-pyrrolidin-1-yl-1,2,4-triazol-3-yl]sulfanyl]benzenecarbohydroxamic acid]
17 | 88 | 82 | O=C(NO)c1cc(F)c(Sc2nnc(N3CCOCC3)n2Cc2ccccc2)c(F)c1 [comp. 117, 4-[(4-benzyl-5-morpholino-1,2,4-triazol-3-yl)sulfanyl]-3,5-difluoro-benzenecarbohydroxamic acid]
93 | 96 | 78 | O=C(NO)c1cc(F)c(Cn2nnnc2Cc2ccccn2)c(F)c1.O=C(O)C(F)(F)F [comp. 135, 3,5-difluoro-4-[[5-(2-pyridylmethyl)tetrazol-1-yl]methyl]benzenecarbohydroxamic acid;2,2,2-trifluoroacetic acid]
14 | 52 | 100 | Cc1nc2ccc(F)cc2cc1-c1nnc(Sc2c(F)cc(C(=O)NO)cc2F)n1C [comp. 137, 3,5-difluoro-4-[[5-(6-fluoro-2-methyl-3-quinolyl)-4-methyl-1,2,4-triazol-3-yl]sulfanyl]benzenecarbohydroxamic acid]
18 | 40 | 90 | O=C(NO)c1cc(F)c(Sc2nnc(-c3cnccn3)n2Cc2ccco2)c(F)c1 [comp. 139, 3,5-difluoro-4-[[4-(2-furylmethyl)-5-pyrazin-2-yl-1,2,4-triazol-3-yl]sulfanyl]benzenecarbohydroxamic acid]
14 | 12 | 85 | O=C(NO)c1cc(F)c(Sc2nnc(-c3ccccn3)n2Cc2ccco2)c(F)c1 [comp. 140, 3,5-difluoro-4-[[4-(2-furylmethyl)-5-(2-pyridyl)-1,2,4-triazol-3-yl]sulfanyl]benzenecarbohydroxamic acid]
16 | 7 | 79 | O=C(NO)c1cc(F)c(Sc2nnc(-c3ccccc3F)n2Cc2ccco2)c(F)c1 [comp. 145, 3,5-difluoro-4-[[5-(2-fluorophenyl)-4-(2-furylmethyl)-1,2,4-triazol-3-yl]sulfanyl]benzenecarbohydroxamic acid]
